The record followed here is patent publication US20040229246A1, “Diagnostic markers for therapeutic treatment” (Can-Fite Biopharam Ltd., priority 2002, published 2004).

One assay relates to PKA and GSK-3β. Nature of the assay: Receptor functionality: Western blot of PKA and GSK-3β in B16-F10 melanoma cells. Type of assay: cell-based. How it is done:
(§1) To detect the level of expression of the A3AR proteins Western blot analysis was performed. Cells were incubated in the presence and absence of IB-MECA (10 nM), MRS1523 (10 nM), Forskolin (50 nM), 8 Br cAMP (100 μM), Cycloheximide 20 μg/ml or MG 132 (20 nM) for different time periods at 37° C. Cells were then rinsed with ice-cold PBS and transferred to ice-cold lysis buffer (TNN buffer, 50 mM Tris buffer pH=7.5, 150 mM NaCl, NP 40). In the experiment examining the effect of trypsin on A3AR expression, cells were incubated with 0.5 ml of 0.25% trypsin for 5 minutes. The trypsinized cells were washed again with ice-cold PBS, harvested by centrifugation and subjected to lysis in TNN buffer. Cell debris was removed by centrifugation for 10 minutes, at 7500 xg. The supernatant was utilized for Western Blot analysis. Protein concentrations were determined using the Bio-Rad protein assay dye reagent. Equal amounts of the sample (50 μg) were separated by SDS-PAGE, using 12% polyacrylamide gels. The resolved proteins were then electroblotted onto nitrocellulose membranes (Schleicher & Schuell, Keene, NH, USA). Membranes were blocked with 1% bovine serum albumin and incubated with the desired primary antibody (dilution 1:1000) for 24 hours at 4° C. Blots were then washed and incubated with a secondary antibody for 1 hour at room temperature. Bands were recorded using BCIP/NBT color development kit (Promega, Madison, W1, USA). Data presented in the different figures are representative of at least three different experiments.
To test receptor functionality, the protein expression level of PKA and GSK-3β, which are modulated downstream to A3AR activation, was examined. Functional receptor sensitization by IB-MECA was observed after 15 and 60 minutes and was manifested by decreased PKA and increased GSK-3β levels. […] Indeed, the modulatory effect of IB-MECA on PKA and GSK-3β was reversed in the presence of the above agents (FIG. 8a, 8b and 8c).

In assay [1] the target is T1, A3AR (Mus musculus, UniProt Q61618).
T1 construct: endogenous in cells; host or cells: B16-F10 melanoma cells
T1 sequence (Q61618 1-319): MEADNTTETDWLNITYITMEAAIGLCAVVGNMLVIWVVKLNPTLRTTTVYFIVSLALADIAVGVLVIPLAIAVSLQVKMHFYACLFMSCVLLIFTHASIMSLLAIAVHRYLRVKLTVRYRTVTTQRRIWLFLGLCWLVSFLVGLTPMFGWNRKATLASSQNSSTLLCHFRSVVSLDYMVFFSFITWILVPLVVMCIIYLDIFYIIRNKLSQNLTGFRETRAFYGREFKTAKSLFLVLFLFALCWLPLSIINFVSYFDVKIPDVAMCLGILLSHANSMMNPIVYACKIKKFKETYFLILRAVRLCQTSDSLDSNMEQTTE
The assay is described as follows: Western blot analysis of A3AR protein in B16-F10 melanoma cells. Type of assay: cell-based. As to conditions: B16-F10 melanoma cells exposed for 180 minutes to IB-MECA in the presence of the inhibitor. How it is done: as §1
Receptor internalization by treating melanoma cells with trypsin, which removes the cell surface receptor, was examined.
Time dependent expression of A3AR in the melanoma cells was examined by Western blot analysis.

The subject of assay [2] is A3AR. The assay is described as follows: Northern blot analysis of A3AR mRNA in B16-F10 melanoma cells. As to conditions: B16-F10 melanoma cells, antagonist with IB-MECA. In kind it is cell-based. How it is done: Total RNA was isolated from B16-F10 melanoma cells treated with IB-MECA, utilizing Tri-reagent (Sigma, Saint Louis). The samples were then subjected twice to phenol:chloroform extraction and washed with chloroform. RNA was precipitated with sodium acetate/ethanol following washing with ethanol, then denatured, separated (25 μg per lane) in 1.1% formaldehyde agarose gels and transferred to Hybond-N membrane. The 390 bp EcoRI fragment from A3AR cDNA clone of mouse (TAA3I.S), kindly supplied by Dr Kathia Ravid, was prepared by random-primed synthesis. Probes were used in RNA blot analysis at a hybridization temperature of 42° C. in the presence of 50% formamide.

Assay [3] has as its system adjuvant induced arthritis. Nature of the assay: Adjuvant induced arthritis (AIA) in rats, clinical and histological score. Type of assay: in vivo. Conditions: administered 30 minutes prior to IB-MECA. The protocol:
AIA in Rats: Female Lewis rats, aged 8-12 weeks, obtained from Harlan Laboratories (Jerusalem, Israel), were injected subcutaneously (s.c.) at the tail base with 100 μl of suspension composed of incomplete Freund's adjuvant (IFA) with 10 mg/ml heat killed Mycobacterium tuberculosis, (Mt) H37Ra, (Difco, Detroit, USA). To assess the clinical disease activity score, the animals were inspected every second day for clinical arthritis. The scoring system ranged from 0-4 of each limb: 0-no arthritis; 1-redness or swelling of one toe/finger joint; 2-redness and swelling of more than one toe/finger joints; 3-the ankle and tarsal-metatarsal joints involvement; 4-entire paw redness or swelling. The arthritic score was calculated by adding the four individual legs' score to a maximum of 16. For histological scoring, Animals were sacrificed, the legs were removed up to the knee level, fixed in 10% formaldehyde, decalcified, dehydrated, paraffin-embedded, cut into 4 μm sections and stained by Hematoxylin-Eosin. The assessment of all pathologic findings were performed blind using semi-quantitative grading scales of 0 to 4 for the following parameters: a) extent of inflammatory cells' infiltration to the joint tissues; b) synovial lining cell hyperplasia; c) pannus formation; and d) joint cartilage layers destruction. […] TNF-α was measured in synovia, DLN and spleen tissues derived from control and CF101 treated rats. […] Protein concentrations were determined using the Bio-Rad protein assay dye reagent. […] Bands were recorded using BCIP/NBT color development kit (Promega, Madison, Wis., USA). Densitometry of protein expression was normalized against β-actin and expressed as % of control. […]

Assay [4] relates to A3AR, A2AR, PI3K, PKB/Akt, IKKα/β, NF-κB, TNF-α, GSK-3β, caspase-3. The assay is described as follows: Western blot of A3AR and downstream signaling proteins in DLN and synovial tissue of AIA rats. In kind it is in vivo. As to conditions: antagonist followed by IB-MECA.

“Also recorded” adds a separate entry of the source. Peptide text beside a SMILES is read from it. * marks the point of attachment. Cbz = O=C(OCc1ccccc1)*

For `Nc1ncnc2c1nc(Br)n2[C@@H]1O[C@@H]2COP(=O)(O)O[C@H]2[C@H]1O` [8-Br-cAMP], the “modulatory effect of IB-MECA on PKA and GSK-3β in the presence of the agent” value in the assay on PKA and GSK-3β was “reversed”.

In the case of `CC(C)C[C@@H](C=O)NC(=O)[C@H](CC(C)C)NC(=O)[C@H](CC(C)C)NC(=O)OCc1ccccc1` [MG132] (Cbz-Leu-Leu-Leu-aldehyde), the “effect on IB-MECA-induced modulation of A3AR protein expression” value on A3AR [1] was “prevented A3AR down-regulation”.

In the case of `CCCOC(=O)c1c(-c2ccccc2)nc(CC)c(C(=O)SCC)c1CCC` [MRS1523], the “effect on IB-MECA-induced A3AR mRNA expression” value in the assay with A3AR [2] is reported as “reversed the increase in mRNA expression”. The “modulatory effect of IB-MECA on PKA and GSK-3β in the presence of the agent” value in the assay on PKA and GSK-3β is recorded as “reversed”. Regarding `O=C(Cc1ccccc1)Nc1nc2ccc(Cl)cc2c2nc(-c3ccco3)nn12` [MRS 1220], in assay [3], the “effect on the anti-inflammatory response of IB-MECA (clinical score)” value is on record as “nullified; also recorded: nullification”. Besides, the “effect on IB-MECA-induced A3AR modulation” value in assay [4] is listed as “blocked this modulation”. On to `C[C@@H]1C[C@@H]([C@H](O)CC2CC(=O)NC(=O)C2)C(=O)[C@@H](C)C1` [cycloheximide], for which the “effect on IB-MECA-induced modulation of A3AR protein expression” value on A3AR [1] was “inhibited receptor up-regulation”.
